Source: patent US20110256147A1, “DIAGNOSTIC AND TREATMENT METHODS FOR CANCER BASED ON IMMUNE INHIBITORS” (THE JOHNS HOPKINS UNIVERSITY, priority 2008, published 2011)

Test system: CD1d-mediated activation of NKT cells
Experiment: CD1d-mediated activation of a panel of NKT cell hybridomas by pretreated LCD1dwt cells, IL-2 ELISA
Type: cell-based, mouse
Conditions: LCD1dwt cells treated 4 h; DN32.D3, N37-1A12, N38-3C3
Method: FIG. 2. […] LCD1dwt cells were treated with 1 ml media containing 5% FBS, FBS, human AB serum or serum from the indicated patients for 3-4 h, washed extensively and then co-cultured with N37-1A12 and N38-3C3 NKT cell hybridomas. IL-2 was measured by standard cytokine ELISA, and data is shown as percent control, normalized to cells treated with culture media as 100% or the maximum level of stimulation.
FIG. 4. Treatment with ovarian cancer associated ascites has no effect on HLA-A2 mediated antigen presentation. […] IFN-γ released was measured by ELISA. […] NKT cell recognition of CD1d was assessed by measuring IL-2 production in the supernatants by ELISA.
FIG. 5. […] NKT cell recognition of CD1d1 was assessed by measuring IL-2 production in the supernatants by ELISA. […]
FIG. 6. […] IL-2 was measured, as an indication of NKT cell activation, by standard cytokine ELISA. […] NKT cell recognition of CD was assessed by measuring IL-2 production in the supernatants by ELISA. […]
FIG. 7. […] (A) IL-2 was measured, or GM-CSF (B) as an indication of NKT cell activation, by standard cytokine ELISA. […] The extracted lipids were analyzed by thin-layer chromatography (TLC) (HPTLC Silica Gel 60; Merck, Darmstadt, Germany) with chloroform-methanol-0.25% aqueous KCl (60:35:8) as running solvent. Gangliosides were detected with a resorcinol—HCl Cu2+ reagent. […]

GT1b
CD1d-mediated activation of NKT cells, increasing doses of ganglioside: did not inhibit
